Earlier results, collected in patent US9585896B2, “Compositions comprising omega-3 fatty acids and vitamin D for psoriasis, and methods and uses thereof” (PRONOVA BIOPHARMA NORGE AS, priority 2012, dated 2017).

Tested on: patients with psoriasis
Settings: over a 12-week period, versus high-dose etanercept

Ustekinumab: FDA-approved IL-12/IL-23 blocker targeting the common domain p40
efficacy in patients with psoriasis: higher efficacy than high-dose etanercept
